Reference: PubChem BioAssay AID1068 (Emory University Molecular Libraries Screening Center, 2008)
The source made the active and inactive calls.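 The calls were made as follows: active = IC50 of 15 µM or lower, and residual activity at the IC50 concentration no higher than 60%; inactive = the rest.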

Molecular target: Ubiquitin carboxyl-terminal hydrolase BAP1 (Homo sapiens) (UniProt Q92560)
Experiment: BAP1 deubiquitinase inhibition, substrate comparison – biochemical, Ub-AMC versus Ub-rhodamine substrates, dose response (AID 1068)
Settings: recombinant BAP1, Ub-rhodamine hydrolysis fluorescence
[1] = measured here: Ub-AMC substrate assay

Ubiquitin carboxyl-terminal hydrolase BAP1 (Homo sapiens), sequence (Q92560 whole entry, looked up): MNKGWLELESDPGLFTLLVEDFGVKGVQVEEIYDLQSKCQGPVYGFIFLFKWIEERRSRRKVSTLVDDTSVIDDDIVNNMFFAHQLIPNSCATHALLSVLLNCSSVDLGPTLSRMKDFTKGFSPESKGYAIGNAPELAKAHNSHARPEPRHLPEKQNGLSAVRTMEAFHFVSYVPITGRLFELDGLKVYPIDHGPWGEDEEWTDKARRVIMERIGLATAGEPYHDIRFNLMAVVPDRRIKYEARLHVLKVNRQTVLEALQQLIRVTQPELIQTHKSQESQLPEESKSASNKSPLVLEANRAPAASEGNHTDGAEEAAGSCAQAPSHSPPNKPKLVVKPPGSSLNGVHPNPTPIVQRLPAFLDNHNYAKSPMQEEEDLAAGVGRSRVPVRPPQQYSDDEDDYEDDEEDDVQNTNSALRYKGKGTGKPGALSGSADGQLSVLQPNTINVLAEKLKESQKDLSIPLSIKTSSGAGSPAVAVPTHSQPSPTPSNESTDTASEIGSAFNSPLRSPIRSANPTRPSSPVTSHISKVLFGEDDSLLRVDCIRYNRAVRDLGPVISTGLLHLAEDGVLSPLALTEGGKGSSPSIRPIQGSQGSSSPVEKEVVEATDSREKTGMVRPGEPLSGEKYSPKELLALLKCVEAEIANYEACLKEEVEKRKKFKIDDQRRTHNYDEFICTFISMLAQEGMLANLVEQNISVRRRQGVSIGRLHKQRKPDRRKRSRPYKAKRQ

| SMILES | IC50 | IC50 [1] [µM] | outcome |
| --- | --- | --- | --- |
| O=C(O)c1ccccc1-c1nc(-c2cccc(Cl)c2)no1 | > 100 µM (inactive) | 58.8 |  |
| O=C(NCc1ccco1)c1cc2nc(-c3ccc4c(c3)OCO4)cc(C(F)(F)F)n2n1 | inactive | > 100 |  |
| COC(=O)c1ccc(NC(=O)CSc2nc(C)cc(=O)[nH]2)cc1 |  | > 100 | inactive |
| CCc1cc(=O)[nH]c(SCC(=O)Nc2ccc(C(=O)OC)cc2)n1 |  | > 100 | inactive |
| Cc1sc(NC(=O)CSc2nc3ncnc(N)c3[nH]2)c(C#N)c1C |  | > 100 | inactive |
| O=C(NCc1ccccn1)c1cc2nc(-c3ccc4c(c3)OCO4)cc(C(F)(F)F)n2n1 |  | > 100 | inactive |
| Cc1sc(NC(=O)CSc2nnc(-c3ccc(Cl)cc3)o2)c(C#N)c1-c1ccc(F)cc1 | 5.51 µM | > 100 |  |
| Cc1ccc(-c2c(C)sc(NC(=O)CSc3nnc(-c4ccccc4)o3)c2C#N)cc1C | inactive | 69.8 |  |
| Cc1cccc2cc(C(c3nnnn3C(C)(C)C)N3CCN(C(=O)OC(C)(C)C)CC3)c(=O)[nH]c12 (stereo not drawn) | > 100 µM (inactive) | > 100 |  |
| N#Cc1c(NC(=O)CSc2nnc(-c3ccc(Cl)cc3)o2)sc2c1CCCC2 | inactive | > 100 |  |
| CCCc1cc(=O)[nH]c(SCC(=O)Nc2ccc(C(=O)OC)cc2)n1 |  | > 100 | inactive |
| Cc1cccc2cc(C(c3nnnn3C(C)(C)C)N3CCNCC3)c(=O)[nH]c12 (stereo not drawn) | inactive | > 100 |  |
| Cc1cccc2cc(C(C#N)N3CCN(C(=O)OC(C)(C)C)CC3)c(=O)[nH]c12 (stereo not drawn) | inactive | > 100 |  |
| Cc1sc(NC(=O)CSc2nnc(-c3ccc(F)cc3)o2)c(C#N)c1C | inactive | 99.7 |  |

These reach a lower IC50 [1]. Values come first.

| IC50 | IC50 [1] [µM] | outcome | SMILES |
| --- | --- | --- | --- |
| inactive | 1.55 |  | Cc1cccc2cc(C(C#N)N3CCNCC3)c(=O)[nH]c12 (stereo not drawn) |
| inactive | 37.5 |  | COc1cccc(NC(=O)c2ccccc2-c2nc(-c3cccc(Cl)c3)no2)c1 |
| 10 µM | 37 |  | Cc1ccc(-c2c(C)sc(NC(=O)CSc3nnc(-c4ccc(F)cc4)o3)c2C#N)cc1C |
| inactive | 39.6 |  | COc1cc(-c2nnc(SCC(=O)Nc3sc(C)c(-c4ccc(F)cc4)c3C#N)o2)cc(OC)c1OC |
| 9.11 µM | 15.3 |  | Cc1sc(NC(=O)CSc2n[nH]c(-c3ccc(O)cc3)n2)c(C#N)c1-c1ccc(F)cc1 |
| 9.54 µM | 37.4 |  | Cc1sc(NC(=O)CSc2nnc(-c3ccc(Cl)cc3)o2)c(C#N)c1C |
| inactive | 47.8 |  | Cc1sc(NC(=O)CSc2nnc(-c3ccccc3)o2)c(C#N)c1C |
| inactive | 27.1 |  | O=C(Nc1cccc(O)c1)c1ccccc1-c1nc(-c2cccc(Cl)c2)no1 |
| inactive | 41.7 |  | N#Cc1c(NC(=O)CSc2nnc(-c3ccc(F)cc3)o2)sc2c1CCCC2 |
|  | 2.32 | inactive | COc1cc(-c2nnc(SCC(=O)Nc3sc(C)c(C)c3C#N)o2)cc(OC)c1OC |
| inactive | 39.9 |  | COc1cccc(NC(=O)c2ccccc2-c2nc(-c3ccc(Cl)cc3)no2)c1 |
| 13.5 µM | 32.6 |  | Cc1ccc(-c2c(C)sc(NC(=O)CSc3nnc(-c4ccc(Cl)cc4)o3)c2C#N)cc1C |
| 12.5 µM | 32.1 |  | Cc1sc(NC(=O)CSc2nnc(-c3ccccc3)o2)c(C#N)c1-c1ccc(F)cc1 |
| > 100 µM (inactive) | 46.5 |  | Cc1oc(NC(=O)CSc2n[nH]c(-c3ccc(F)cc3)n2)c(C#N)c1C |
|  | 5.62 | inactive | CCc1ccc(NC(=O)CSc2nc(C)cc(=O)[nH]2)cc1 |
| inactive | 40.1 |  | COc1ccccc1NC(=O)c1ccccc1-c1nc(-c2ccc(Cl)cc2)no1 |
| < 0.78 µM (inactive) | 55.7 |  | Cc1cccc2cc(C(c3nnnn3C(C)(C)C)N3CCN(C(=O)c4ccco4)CC3)c(=O)[nH]c12 (stereo not drawn) |
| > 100 µM (inactive) | 38.9 |  | Cc1cccc2cc(C(c3nn[nH]n3)N3CCN(C(=O)OC(C)(C)C)CC3)c(=O)[nH]c12 (stereo not drawn) |
| inactive | 1.31 |  | O=C(O)c1ccccc1-c1nc(-c2ccc(Cl)cc2)no1 |
| inactive | 44.7 |  | O=C(NCc1cccs1)c1cc2nc(-c3ccc4c(c3)OCO4)cc(C(F)(F)F)n2n1 |
